Measured values reported in US10167262B2, “Herbicidal substituted 3-arylpyrazoles” (FMC CORPORATION, priority 2014, dated 2019).

Tests used:
Assay in all cases: Test C pre-/postemergence greenhouse test, plant response rating 0-100
Type in all cases: in vivo
[1] = test system: galium (catchweed bedstraw, Galium aparine)
How it was run: (§1)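 Formulated in solvent with surfactant, test chemicals were sprayed on seeded loam/sand pots and, concurrently, on young plants 2–18 cm tall. Evaluation: visual, versus controls, day 13–15.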

[2] = test system: ragweed (common ragweed, Ambrosia elatior)
How it was run: as §1

[3] = test system: morningglory (Ipomoea coccinea)
How it was run: as §1

[4] = test system: Italian ryegrass (Lolium multiflorum)
How it was run: as §1

[5] = test system: pigweed (Amaranthus retroflexus)
How it was run: as §1

[6] = test system: lambsquarters (Chenopodium album)
How it was run: as §1

[7] = test system: yellow nutsedge (Cyperus esculentus)
How it was run: as §1

[8] = test system: velvetleaf (Abutilon theophrasti)
How it was run: as §1

[9] = test system: large (Lg) crabgrass (Digitaria sanguinalis)
How it was run: as §1

[10] = test system: soybean (Glycine max)
How it was run: as §1

[11] = test system: blackgrass (Alopecurus myosuroides)
How it was run: as §1

[12] = test system: corn (Zea mays)
How it was run: as §1

[13] = Postemergence, 250 g ai/ha, scale 0 to 100
[14] = Postemergence, 500 g ai/ha, scale 0 to 100
[15] = Preemergence, 0 to 100 scale (0 no effect, 100 complete control), rate 500 g ai/ha per head r3, sub-head of this section not shown

O=C(c1ccccc1)c1cn(S(=O)(=O)CC(F)(F)F)nc1-c1cc(Cl)cc(Cl)c1 [Compound 3]
Plant response rating (0 to 100), Galium ([1]; Postemergence, 62 g ai/ha): 0 | Plant response rating (0 to 100), Galium ([1]; Postemergence, 125 g ai/ha): 0 | Plant response rating, Galium [1, 13]: 20 | Plant response rating, Galium [1, 14]: 30 | Plant response rating, Galium ([1]; Preemergence, 62 g ai/ha): 0 | Plant response rating, Galium ([1]; Preemergence, 125 g ai/ha): 0 | Plant response rating, Galium ([1]; Preemergence, 250 g ai/ha): 0 | Plant response rating, Galium ([1]; Preemergence, 500 g ai/ha): 0 | Plant response rating (0 to 100), Ragweed ([2]; Postemergence, 62 g ai/ha): 20 | Plant response rating (0 to 100), Ragweed ([2]; Postemergence, 125 g ai/ha): 25 | Plant response rating, Ragweed [2, 13]: 65 | Plant response rating, Ragweed [2, 14]: 65 | Plant response rating, Ragweed ([2]; Preemergence, 62 g ai/ha): 0 | Plant response rating, Ragweed ([2]; Preemergence, 125 g ai/ha): 0 | Plant response rating, Ragweed ([2]; Preemergence, 250 g ai/ha): 70 | Plant response rating, Ragweed ([2]; Preemergence, 500 g ai/ha): 95 | Plant response rating, Ragweed [2, 15]: 35 | Plant response rating (0 to 100), Morningglory ([3]; Postemergence, 62 g ai/ha): 0 | Plant response rating (0 to 100), Morningglory ([3]; Postemergence, 125 g ai/ha): 0 | Plant response rating, Morningglory [3, 13]: 0 | Plant response rating, Morningglory [3, 14]: 0 | Plant response rating, Morningglory ([3]; Preemergence, 62 g ai/ha): 0 | Plant response rating, Morningglory ([3]; Preemergence, 125 g ai/ha): 0 | Plant response rating, Morningglory ([3]; Preemergence, 250 g ai/ha): 10 | Plant response rating, Morningglory ([3]; Preemergence, 500 g ai/ha): 10 | Plant response rating (0 to 100), Ryegrass, Italian ([4]; Postemergence, 62 g ai/ha): 0 | Plant response rating (0 to 100), Ryegrass, Italian ([4]; Postemergence, 125 g ai/ha): 0 | Plant response rating, Ryegrass, Italian [4, 13]: 0 | Plant response rating, Ryegrass, Italian [4, 14]: 0 | Plant response rating, Ryegrass, Italian ([4]; Preemergence, 62 g ai/ha): 0 | Plant response rating, Ryegrass, Italian ([4]; Preemergence, 125 g ai/ha): 0 | Plant response rating, Ryegrass, Italian ([4]; Preemergence, 250 g ai/ha): 0 | Plant response rating, Ryegrass, Italian ([4]; Preemergence, 500 g ai/ha): 0 | Plant response rating, Ryegrass, Italian [4, 15]: 0 | Plant response rating (0 to 100), Pigweed ([5]; Postemergence, 62 g ai/ha): 85 | Plant response rating (0 to 100), Pigweed ([5]; Postemergence, 125 g ai/ha): 95 | Plant response rating, Pigweed [5, 13]: 100 | Plant response rating, Pigweed ([5]; Preemergence, 62 g ai/ha): 30 | Plant response rating, Pigweed ([5]; Preemergence, 125 g ai/ha): 100 | Plant response rating, Pigweed ([5]; Preemergence, 250 g ai/ha): 100 | Plant response rating, Pigweed ([5]; Preemergence, 500 g ai/ha): 100 | Plant response rating (0 to 100), Lambsquarters ([6]; Postemergence, 62 g ai/ha): 55 | Plant response rating, Lambsquarters [6, 13]: 80 | Plant response rating, Lambsquarters [6, 14]: 100 | Plant response rating, Lambsquarters ([6]; Preemergence, 62 g ai/ha): 100 | Plant response rating, Lambsquarters ([6]; Preemergence, 125 g ai/ha): 100 | Plant response rating, Lambsquarters ([6]; Preemergence, 250 g ai/ha): 100 | Plant response rating, Lambsquarters ([6]; Preemergence, 500 g ai/ha): 100 | Plant response rating (0 to 100), Nutsedge, Yellow ([7]; Postemergence, 62 g ai/ha): 0 | Plant response rating (0 to 100), Nutsedge, Yellow ([7]; Postemergence, 125 g ai/ha): 0 | Plant response rating, Nutsedge, Yellow [7, 13]: 0 | Plant response rating, Nutsedge, Yellow [7, 14]: 0 | Plant response rating, Nutsedge, Yellow ([7]; Preemergence, 62 g ai/ha): 0 | Plant response rating, Nutsedge, Yellow ([7]; Preemergence, 125 g ai/ha): 0 | Plant response rating, Nutsedge, Yellow ([7]; Preemergence, 250 g ai/ha): 0 | Plant response rating, Nutsedge, Yellow ([7]; Preemergence, 500 g ai/ha): 0 | Plant response rating (0 to 100), Velvetleaf ([8]; Postemergence, 62 g ai/ha): 70 | Plant response rating (0 to 100), Velvetleaf ([8]; Postemergence, 125 g ai/ha): 70 | Plant response rating, Velvetleaf [8, 13]: 75 | Plant response rating, Velvetleaf [8, 14]: 85 | Plant response rating, Velvetleaf ([8]; Preemergence, 62 g ai/ha): 50 | Plant response rating, Velvetleaf ([8]; Preemergence, 250 g ai/ha): 55 | Plant response rating, Velvetleaf ([8]; Preemergence, 500 g ai/ha): 100 | Plant response rating, Velvetleaf [8, 15]: 20 | Plant response rating (0 to 100), Crabgrass, Large ([9]; Postemergence, 62 g ai/ha): 0 | Plant response rating (0 to 100), Crabgrass, Large ([9]; Postemergence, 125 g ai/ha): 5 | Plant response rating, Crabgrass, Large [9, 13]: 5 | Plant response rating, Crabgrass, Large [9, 14]: 5 | Plant response rating, Crabgrass, Large ([9]; Preemergence, 62 g ai/ha): 0 | Plant response rating, Crabgrass, Large ([9]; Preemergence, 125 g ai/ha): 0 | Plant response rating, Crabgrass, Large ([9]; Preemergence, 250 g ai/ha): 0 | Plant response rating, Crabgrass, Large ([9]; Preemergence, 500 g ai/ha): 0 | Plant response rating (0 to 100), Soybean ([10]; Postemergence, 62 g ai/ha): 0 | Plant response rating (0 to 100), Soybean ([10]; Postemergence, 125 g ai/ha): 0 | Plant response rating, Soybean [10, 13]: 0 | Plant response rating, Soybean [10, 14]: 0 | Plant response rating, Soybean ([10]; Preemergence, 62 g ai/ha): 0 | Plant response rating, Soybean ([10]; Preemergence, 125 g ai/ha): 0 | Plant response rating, Soybean ([10]; Preemergence, 250 g ai/ha): 0 | Plant response rating, Soybean ([10]; Preemergence, 500 g ai/ha): 0 | Plant response rating, Soybean [10, 15]: 0 | Plant response rating (0 to 100), Blackgrass ([11]; Postemergence, 62 g ai/ha): 0 | Plant response rating, Blackgrass ([11]; Postemergence, 125 g ai/ha, scale 0 to 100): 0 | Plant response rating, Blackgrass [11, 13]: 0 | Plant response rating, Blackgrass [11, 14]: 0 | Plant response rating, Blackgrass ([11]; Preemergence, 62 g ai/ha): 0 | Plant response rating, Blackgrass ([11]; Preemergence, 125 g ai/ha): 0 | Plant response rating, Blackgrass ([11]; Preemergence, 250 g ai/ha): 0 | Plant response rating, Blackgrass ([11]; Preemergence, 500 g ai/ha): 0 | Plant response rating (0 to 100), Corn ([12]; Postemergence, 62 g ai/ha): 0 | Plant response rating (0 to 100), Corn ([12]; Postemergence, 125 g ai/ha): 5 | Plant response rating, Corn [12, 13]: 5 | Plant response rating, Corn [12, 14]: 5 | Plant response rating, Corn ([12]; Preemergence, 62 g ai/ha): 0 | Plant response rating, Corn ([12]; Preemergence, 125 g ai/ha): 0 | Plant response rating, Corn ([12]; Preemergence, 250 g ai/ha): 0 | Plant response rating, Corn ([12]; Preemergence, 500 g ai/ha): 0
